Results taken from patent publication US5763443A, “MDR resistance treatment and novel pharmaceutically active riminophenazines” (priority 1994, dated 1998).
In brackets after ≈: the same amount, converted by molar mass. Like-named read-outs stand apart in the source and are kept apart here.

How the values were obtained:
[1] = system: multi-drug resistant (MDR) lung carcinoma cell line H69/LX4; experiment: cells; conditions: for INCREASED SENSITIVITY H69/Lx4: Table VIII, values equal IC50 NONE / IC50 with VB 25 ng/ml of Table VII, 10080 min
Procedure: The riminophenazines of the above formula (I), contain an imino group. […] The potency of compounds of the above general formula, as inhibitors of multi-drug resistance, was assessed by sensitization of a P-glycoprotein positive cell line to drugs associated with this form of resistance. A human small cell lung cancer cell line H 69/P as well as a multi-drug resistance (MDR) sub-line H69/LX4 were used. These cell lines were obtained from the Medical Research Council Clinical Oncology and Radiotherapeutics Unit, Hills Road, Cambridge, England. The H69/LX4 line was selected in vitro by progressive exposure to increasing concentrations of doxorubicin in order to increase P-glycoprotein expression.
The cell lines used were human small cell lung cancer cell line HP69/P and a multi-drug resistant (MDR) sub-line H69/LX4, both of which were supplied by the MRC Clinical Oncology and Radiotherapeutics Unit, Hills Road, Cambridge, England. The maintenance of the cell lines and drug response assays was done as described by Twentyman et al in British Journal of Cancer Volume 65 pages 335-340. The H69/LX4 line was originally described by Twentyman et al in British Journal of Cancer Volume 53, pages 529-637 (1986).
The data in parenthesis represents fold sensitivity compared with the chemotherapeutic agent without the MDR inhibitor.
The results obtained, are illustrated graphically in FIGS. 4 to 7 of the accompanying drawings.
(§1) The general procedure set forth above was followed, i.e. 7 days incubation in the4 presence of doxorubicin at 12,5 ng/ml or vinblastine at 25 or 3 ng/ml.
(§2) The effects were examined over a seven (7) day exposure to different concentrations of B4119 and B4125 on the sensitivity of a doxorubicin resistant leukaemia cell line (K562/MMB) and a lung carcinoma cell line (H69/LX4) to doxorubicin (dox) and vinblastine (VB) using the MTT assay.

[2] = system: MDR leukaemia cell line K562/MMB; experiment: cells; conditions: for INCREASED SENSITIVITY K 562/MMB: Table VIII, values equal IC50 NONE / IC50 with VB 3 ng/ml of Table VII, 10080 min; for MDR activity / sensitivity against cell line K562/MMP: compared with known reference compound B4100
Procedure: A third cell line (562/MMB) used was a MDR leukemia cell line selected in vitro by progressive exposure to increasing concentrations of vinblastine in order to increase P-glycoprotein expression. This cell line was developed in the Department of Immunology, University of Pretoria from K562 (ATCC CCL 243) supplied by Highveld Biological (Pty) Ltd, Sandton.
as §1, §2

[3] = Homo sapiens, 168 h, read-out: IC 50 H69/Lx4 NONE
[4] = Homo sapiens, read-out: IC 50 H69/Lx4 DOX 12 ng/ml
[5] = Homo sapiens, read-out: IC 50 H69/Lx4 VB 25 ng/ml
[6] = Homo sapiens, K562, 168 h, read-out: IC 50 K562/MMB NONE, Table VII, riminophenazine alone, 7 day
[7] = Homo sapiens, K562, read-out: IC 50 K562/MMB DOX 12 ng/ml, Table VII, with doxorubicin 12 ng/ml
[8] = Homo sapiens, K562, read-out: IC 50 K562/MMB VB 3 ng/ml, Table VII, with vinblastine 3 ng/ml

Row | Compound | IC50 [1, 3] | IC50 [1, 4] | IC50 [1, 5] | INCREASED SENSITIVITY H69/Lx4 [1] | INCREASED SENSITIVITY K 562/MMB [2] | further results
1 | COc1ccc(Nc2cc3nc4ccccc4n(-c4ccc(OC)cc4)c-3cc2=NC2CC(C)(C)NC(C)(C)C2)cc1 [Compound B4174, N,5-bis(4-methoxyphenyl)-3,5-dihydro-3-[(2',2',6',6'-tetramethyl-4-piperidyl)-imino]-2-phenazinamine] | 0.462 mg/L (≈ 0.822 µM) | 0.587 mg/L (≈ 1.04 µM) | 0.535 mg/L (≈ 0.952 µM) | 0.86 | 1.78 | –
2 | CC1(C)CC(N=c2cc3n(-c4ccc(OC(F)(F)F)cc4)c4ccccc4nc-3cc2Nc2ccc(OC(F)(F)F)cc2)CC(C)(C)N1 [Compound B4177, N,5-bis(4-trifluoromethoxyphenyl)-3,5-dihydro-3-[(2',2',6',6'-tetramethyl-4-piperidyl)-imino)-2-phenazinamine] | 0.6 mg/L (≈ 0.896 µM) | 0.852 mg/L (≈ 1.27 µM) | 0.056 mg/L (≈ 0.0836 µM) | 10.71 | – | MDR activity against the cell line H69/LX4 [1]: very good activity
3 | CC1(C)CC(N=c2cc3n(-c4cccc(C(F)(F)F)c4)c4ccc(Cl)cc4nc-3cc2Nc2cccc(C(F)(F)F)c2)CC(C)(C)N1 [Compound B4127, N,5-bis(3-trifluoromethylphenyl)-8-chloro-3,5-dihydro-3-[(2',2',6',6'-tetramethyl-4-piperidyl)-imino]-2-phenazinamine] | 1.32 mg/L (≈ 1.97 µM) | 1.31 mg/L (≈ 1.95 µM) | 0.454 mg/L (≈ 0.675 µM) | 2.91 | 6.07 | –
4 | CC[C@]1(O)C[C@@H]2CN(CCc3c([nH]c4ccccc34)[C@@](C(=O)OC)(c3cc4c(cc3OC)N(C)[C@H]3[C@@](O)(C(=O)OC)[C@H](OC(C)=O)[C@]5(CC)C=CCN6CC[C@]43[C@@H]65)C2)C1 [Vinblastine, reference compound] | – | – | – | – | – | cytotoxicity at 0.025 µg/mL ([1]; Homo sapiens, 168 h, read-out: cytotoxic activity of chemotherapeutic agent at the concentration used with the riminophenazine): < 10%; cytotoxicity at 0.003 µg/mL ([2]; Homo sapiens, K562, 168 h, read-out: cytotoxic activity of chemotherapeutic agent at the concentration used with the riminophenazine): < 10%
5 | CC1(C)CC(N=c2cc3n(-c4ccccc4)c4ccc(Cl)cc4nc-3cc2Nc2ccccc2)CC(C)(C)N1 [Compound B4019] | 1.03 mg/L (≈ 1.92 µM) | 0.771 mg/L (≈ 1.44 µM) | 0.488 mg/L (≈ 0.91 µM) | 2.11 | – | –
6 | CC1(C)CC(N=c2cc3n(-c4ccc(Cl)c(Cl)c4)c4ccccc4nc-3cc2Nc2ccc(Cl)c(Cl)c2)CC(C)(C)N1 [Compound B4100, reference compound] | 0.798 mg/L (≈ 1.25 µM) | 0.582 mg/L (≈ 0.91 µM) | 0.125 mg/L (≈ 0.195 µM) | 6.38 | 3.53 | –
7 | CC1(C)CC(N=c2cc3n(-c4ccc(C(F)(F)F)cc4C(F)(F)F)c4ccccc4nc-3cc2Nc2ccc(C(F)(F)F)cc2C(F)(F)F)CC(C)(C)N1 [Compound B4178, N,5-bis(2,4-di-trifluoromethyl-phenyl)-3,5-dihydro-3-[(2',2',6',6'-tetramethylpiperidyl)-imino]phenazinamine] | 0.785 mg/L (≈ 1.01 µM) | 0.521 mg/L (≈ 0.673 µM) | 0.399 mg/L (≈ 0.516 µM) | 1.97 | 6.03 | IC50 [2, 6]: 1.02 mg/L (≈ 1.32 µM); IC50 [2, 7]: 0.919 mg/L (≈ 1.19 µM); IC50 [2, 8]: 0.199 mg/L (≈ 0.257 µM)
8 | CC1(C)CC(N=c2cc3n(-c4ccc(Cl)cc4)c4ccccc4nc-3cc2Nc2ccc(Cl)cc2)CC(C)(C)N1 [Compound B3786] | 0.608 mg/L (≈ 1.07 µM) | 0.597 mg/L (≈ 1.05 µM) | 0.169 mg/L (≈ 0.296 µM) | 3.60 | – | –
9 | CC1(C)CC(N=c2cc3n(-c4ccc(Cl)cc4Cl)c4ccccc4nc-3cc2Nc2ccc(Cl)cc2Cl)CC(C)(C)N1 [Compound B4128, N,5-bis(2,4-dichiorophenyl)-3,5-dihydro-3-[(2',2',6',6'-tetramethyl-4-piperidyl)-imino]-2-phenazinamine] | 1.23 mg/L (≈ 1.92 µM) | 0.782 mg/L (≈ 1.22 µM) | 0.434 mg/L (≈ 0.679 µM) | 2.82 | 6.49 | MDR activity / sensitivity against cell line K562/MMP [2]: increased substantially and unexpectedly
10 | CC1(C)CC(N=c2cc3n(-c4ccccc4)c4ccccc4nc-3cc2Nc2ccccc2)CC(C)(C)N1 [Compound B3962, N,5-bis(phenyl)-3,5-dihydro-3-[(2',2',6',6'-tetramethyl-4-piperidyl)imino]-2-phenazinamine] | 0.563 mg/L (≈ 1.12 µM) | 0.427 mg/L (≈ 0.851 µM) | 0.262 mg/L (≈ 0.522 µM) | 2.15 | 4.07 | –
11 | Cc1ccc(Nc2cc3nc4ccccc4n(-c4ccc(C)cc4)c-3cc2=NC2CC(C)(C)NC(C)(C)C2)cc1 [Compound B4070, N,5-bis(4-methylphenyl)-3,5-dihydro-3-[(2',2',6',6'-tetramethyl-4-piperidyl)imino]-2-phenazinamine] | 0.525 mg/L (≈ 0.991 µM) | 0.312 mg/L (≈ 0.589 µM) | 0.2 mg/L (≈ 0.378 µM) | 2.63 | 2.94 | IC50 [2, 6]: 0.159 mg/L (≈ 0.3 µM); IC50 ([2]; Homo sapiens, K562, 168 h, read-out: IC 50 of riminophenazine, Doxorubicin, Table IV, K562/MMB, with doxorubicin 12 ng/ml, 7 day): 0.193 mg/L (≈ 0.364 µM); IC50 ([2]; Homo sapiens, K562, 168 h, read-out: IC 50 of riminophenazine, None, Table IV, K562/MMB, riminophenazine alone, 7 day, mean of 2 experiments): 0.159 mg/L (≈ 0.3 µM); IC50 ([2]; Homo sapiens, K562, 168 h, read-out: IC 50 of riminophenazine, Vinblastine, Table IV, K562/MMB, with vinblastine 3 ng/ml, 7 day): 0.054 mg/L (≈ 0.102 µM); IC50 [2, 7]: 0.193 mg/L (≈ 0.364 µM); IC50 [2, 8]: 0.054 mg/L (≈ 0.102 µM)
12 | CC1(C)CC(N=c2cc3n(-c4ccc(Cl)c(C(F)(F)F)c4)c4ccccc4nc-3cc2Nc2ccc(Cl)c(C(F)(F)F)c2)CC(C)(C)N1 [Compound B4163, N,5-bis[(3-trifluoromethyl)-4-chlorophenyl]-3,5-dihydro-3-[(2',2',6',6'-tetramethylpiperidyl)-imino]-2-phenazinamine] | 0.972 mg/L (≈ 1.38 µM) | 0.846 mg/L (≈ 1.2 µM) | 0.281 mg/L (≈ 0.398 µM) | 3.46 | 10.63 | IC50 [2, 8]: 0.032 mg/L (≈ 0.0453 µM); MDR activity / sensitivity against cell line K562/MMP [2]: increased substantially and unexpectedly
13 | CC(C)c1ccc(Nc2cc3nc4cc(Cl)ccc4n(-c4ccc(C(C)C)cc4)c-3cc2=NC2CC(C)(C)NC(C)(C)C2)cc1 [Compound B4159, N,5-bis(4-isopropylphenyl)-8-chloro-3,5-dihydro-3-[(2',2',6',6'-tetramethyl-4-piperidyl)-imino]-2-phenazinamine] | 1.55 mg/L (≈ 2.5 µM) | 1.09 mg/L (≈ 1.76 µM) | 0.268 mg/L (≈ 0.432 µM) | 5.79 | 7.02 | MDR activity / sensitivity against cell line K562/MMP [2]: exceptionally good activity
14 | CO[C@@]12[C@H](COC(N)=O)C3=C(C(=O)C(C)=C(N)C3=O)N1C[C@@H]1N[C@@H]12 [Mitomycin C, reference compound] | – | – | – | – | – | IC50 ([1]; Homo sapiens, 168 h, read-out: IC50 of chemotherapeutic agent, MDR inhibitor None): 0.1 mg/L (≈ 0.299 µM)
